Assays:
[1] = tested on: full thickness (excisional) wounds; assay: Accelerated wound healing study, full thickness acute wound model; type: in vivo, albino rats; settings: rats, topical on wound, over 15 days; versus gauze and Comfeel
Experimental: In the examples of the study, a series of comparative control bandage substrates were evaluated as to the speed at which wounds covered/dressed with such bandages healed. In particular, the rates of re-epithelialization were measured for wounds dressed by such control dressing materials.
Wounds were treated with test and control articles on the day of wounding (day 0) on 2,4,6,8,10, 12, and 14 days after the injury. CNA (freeze dried) was cut to the approximate size of the wound and applied over the wound. Chitosan (powder) and NA (powder) were applied over the wound to the depth that covered the underlying tissue. The gauze was cut to extend approximately 0.5 cm beyond the margins of the wound. […]
For the study, twenty four albino rats (12M/12F), each weighing between 250-300 g, were anesthetized (90 mg/Kg Ketamine HCL and 10 mg/Kg Xylazine) and the entire dorsal region of each rat was shaved. […] The epithelial thickness of the three sections of the wound (margin, center and midpoint between these two) was measured by morphometric analysis of the microscopic image using Image-Pro Plus software, Version 3.0 (Media Cybernetics). The average thickness of these sites within the wound was determined for wound healing of the entire site.

human blood = assay: Lee and White coagulation assay in human blood; settings: dried form, 5 mg/ml, triplicate
Experimental: Several hemostatic agents were compared to determine relative effectiveness when reviewed with untreated human blood. Such comparison is illustrated in the following Table 23.
Each of the compounds were evaluated in the comparison against the standard control (human blood) and the negative control heparin, which is an anti-coagulant.
Lee and White Coagulation Assay in Human Blood

Row | Compound | wound healing capability (rate of epithelialization, epithelial thickness) [1] | BLOOD CLOTTING TIME (human blood)
1 | NC(=O)c1cccnc1.O=C1O[C@H]([C@@H](O)CO)C(O)=C1O [NA, Niacinamide ascorbate] | dramatically increased the wound healing capability | –
2 | Heparin | – | NC (NC = No Clot for 60 min)
